Data reported in ChEMBL document CHEMBL4270495, “Oleanane-, ursane-, and quinone methide friedelane-type triterpenoid derivatives: Recent advances in cancer treatment” (Eur J Med Chem, 2017).

Assays:
[1] = system: RAW264.7; test: Anti-inflammatory activity in mouse RAW264.7 cells assessed as inhibition of nitric oxide production; assay type: functional, cell-based
[2] = system: HL60/ADR; test: Cytotoxicity in human HL60/ADR cells assessed as reduction in cell viability incubated for 24 hrs by MTT assay; assay type: functional, cell-based
[3] = system: MDA-MB-231; test: Cytotoxicity in human MDA-MB-231 cells assessed as reduction in cell viability incubated for 24 hrs by MTT assay; assay type: functional, cell-based; conditions: MDA-MB-231, 24 h
[4] = system: HL-60; test: Cytotoxicity in human HL60 cells assessed as reduction in cell viability incubated for 24 hrs by MTT assay; assay type: functional, cell-based; conditions: HL-60, 24 h
[5] = system: A549; test: Cytotoxicity in human A549 cells assessed as reduction in cell viability incubated for 24 hrs by MTT assay; assay type: functional, cell-based; conditions: A549, 24 h
[6] = system: MCF7; test: Cytotoxicity in human MCF7 cells assessed as reduction in cell viability incubated for 24 hrs by MTT assay; assay type: functional, cell-based; conditions: MCF7, 24 h
[7] = system: T-24; test: Cytotoxicity in human T24 cells assessed as reduction in cell viability incubated for 48 hrs by MTT assay; assay type: functional, cell-based; conditions: T-24, 48 h
[8] = Cytotoxicity in human SPCA2 cells assessed as reduction in cell viability incubated for 48 hrs by MTT assay; assay type: functional, cell-based; conditions: SPCA2, 48 h
[9] = system: A549; test: Cytotoxicity in human A549 cells assessed as reduction in cell viability incubated for 48 hrs by MTT assay; assay type: functional, cell-based; conditions: A549, 48 h
[10] = system: HUVEC; test: Cytotoxicity in HUVEC cells assessed as reduction in cell viability incubated for 48 hrs by MTT assay; assay type: cell-based; conditions: Homo sapiens
[11] = system: HepG2; test: Cytotoxicity in human HepG2 cells assessed as reduction in cell viability incubated for 24 hrs by MTT assay; assay type: functional, cell-based; conditions: HepG2, 24 h
[12] = Cytotoxicity in human HELF cells assessed as reduction in cell viability incubated for 24 hrs by MTT assay; assay type: cell-based
[13] = system: AGS; test: Cytotoxicity in human AGS cells assessed as reduction in cell viability incubated for 24 hrs by MTT assay; assay type: functional, cell-based
[14] = system: HeLa; test: Cytotoxicity in human HeLa cells assessed as reduction in cell viability incubated for 24 hrs by MTT assay; assay type: functional, cell-based
[15] = system: HepG2; test: Cytotoxicity in human HepG2 cells assessed as reduction in cell viability incubated for 48 hrs by MTT assay; assay type: functional, cell-based; conditions: HepG2, 48 h
[16] = system: HeLa; test: Cytotoxicity in human HeLa cells assessed as reduction in cell viability incubated for 48 hrs by MTT assay; assay type: functional, cell-based
[17] = system: SGC-7901; test: Cytotoxicity in human SGC7901 cells assessed as reduction in cell viability incubated for 48 hrs by MTT assay; assay type: functional, cell-based; conditions: SGC-7901, 48 h
[18] = system: MCF7; test: Cytotoxicity in human MCF7 cells assessed as reduction in cell viability; assay type: functional, cell-based
[19] = system: A-375; test: Cytotoxicity in human A375 cells assessed as reduction in cell viability incubated for 24 hrs by MTT assay; assay type: functional, cell-based; conditions: A-375, 24 h
[20] = system: NCI-H446; test: Cytotoxicity in human NCI-H446 cells assessed as reduction in cell viability incubated for 24 hrs by MTT assay; assay type: functional, cell-based; conditions: NCI-H446, 24 h
[21] = system: HeLa; test: Cytotoxicity in human HeLa cells assessed as reduction in cell viability incubated for 72 hrs by CCK8 assay; assay type: functional, cell-based

CC1(C)CC[C@]2(C(=O)n3ccnc3)CC[C@]3(C)[C@H](C(=O)C=C4[C@@]5(C)C=C(C#N)C(=O)C(C)(C)[C@@H]5CC[C@]43C)[C@@H]2C1
IC50 [1]: 1 µM

COC(=O)[C@]12CC[C@@H](C)[C@H](C)[C@H]1C1=CC[C@@H]3[C@@]4(C)C=C(C#N)C(=O)C(C)(C)[C@@H]4CC[C@@]3(C)[C@]1(C)CC2
IC50 [1]: 17 µM

COC(=O)[C@]12CCC(C)(C)C[C@H]1C1=CC(=O)[C@@H]3[C@@]4(C)CCC(=O)C(C)(C)[C@@H]4CC[C@@]3(C)[C@]1(C)CC2
IC50 [2]: 7.54 µM
IC50 [3]: 33.2 µM
IC50 [4]: 2.85 µM

CC1(C)CC[C@]2(C(=O)O)CC[C@]3(C)C(=CC[C@@H]4[C@@]5(C)CC[C@H](O[C@@H]6OC[C@H](O[C@@H]7OC[C@H](O)[C@H](O)[C@H]7O)[C@H](O[C@H]7O[C@H](CO)[C@@H](O)[C@H](O)[C@@H]7O)[C@H]6O)[C@@](C)(CO)[C@@H]5CC[C@]43C)[C@H]2C1
IC50 [5]: 17.9 µM
IC50 [6]: > 50 µM

CCOP(=O)(OCC)C(NC(=O)[C@]12CC[C@@H](C)[C@H](C)[C@H]1C1=CC[C@@H]3[C@@]4(C)C[C@@H](OC(C)=O)[C@H](OC(C)=O)[C@@](C)(COC(C)=O)[C@@H]4CC[C@@]3(C)[C@]1(C)CC2)c1ccc(Cl)cc1 (stereo not given in full)
IC50 [7]: 8.93 µM
IC50 [8]: 16.1 µM
IC50 [9]: 15.7 µM
IC50 [10]: > 100 µM

CC(=O)O[C@H]1CC[C@]2(C)[C@H]3CC=C4[C@@H]5[C@@H](C)[C@H](C)CC[C@]5(C(=O)NCCCCN)CC[C@@]4(C)[C@]3(C)CC[C@H]2C1(C)C
IC50 [11]: 16 µM
IC50 [12]: 25.1 µM
IC50 [13]: 14.1 µM
IC50 [14]: 4.2 µM

C[C@@H]1CC[C@]2(C(=O)OCC(=O)N/N=C/c3ccc(Cl)cc3)CC[C@]3(C)C(=CC(=O)[C@@H]4[C@@]5(C)CC[C@H](O)[C@](C)(CO)[C@@H]5CC[C@]43C)[C@@H]2[C@]1(C)O
IC50 [15]: > 100 µM
IC50 [16]: > 100 µM
IC50 [17]: > 100 µM

C[C@H]1[C@H](C)CC[C@]2(C(N)=O)CC[C@]3(C)C(=CC[C@@H]4[C@@]5(C)CC[C@H](OC(=O)CCC(=O)O)C(C)(C)[C@@H]5CC[C@]43C)[C@H]12
IC50 [11]: 9.1 µM
IC50 [18]: 44.6 µM

CCOP(=O)(OCC)C(NC(=O)[C@]12CC[C@@H](C)[C@H](C)[C@H]1C1=CC[C@@H]3[C@@]4(C)C[C@@H](OC(C)=O)[C@H](OC(C)=O)[C@@](C)(COC(C)=O)[C@@H]4CC[C@@]3(C)[C@]1(C)CC2)c1ccc2ccccc2c1 (stereo not given in full)
IC50 [7]: 49.1 µM
IC50 [8]: 48.7 µM
IC50 [9]: 46.3 µM
IC50 [10]: > 100 µM

COC(=O)C(CO)NC(=O)[C@]12CC[C@@H](C)[C@@](C)(O)[C@H]1C1=CC(=O)[C@@H]3[C@@]4(C)CC[C@H](OC(C)=O)[C@](C)(COC(C)=O)[C@@H]4CC[C@@]3(C)[C@]1(C)CC2 (stereo not given in full)
IC50 [11]: 3.41 µM
IC50 [19]: 5.99 µM
IC50 [20]: 3.84 µM

CCOP(=O)(OCC)C(NC(=O)[C@]12CC[C@@H](C)[C@H](C)[C@H]1C1=CC[C@@H]3[C@@]4(C)C[C@@H](OC(C)=O)[C@H](OC(C)=O)[C@@](C)(COC(C)=O)[C@@H]4CC[C@@]3(C)[C@]1(C)CC2)c1ccccc1Cl (stereo not given in full)
IC50 [7]: 6.59 µM
IC50 [8]: 15 µM
IC50 [9]: 14.9 µM
IC50 [10]: > 100 µM

C[C@H]1[C@H](C)CC[C@]2(C#N)CC[C@]3(C)C(=CC[C@@H]4[C@@]5(C)C=C(C#N)C(=O)C(C)(C)[C@@H]5CC[C@]43C)[C@H]12
IC50 [1]: 1 to 7 µM

CC(=O)O[C@H]1CC[C@]2(C)[C@H]3CC=C4[C@@H]5[C@@H](C)[C@H](C)CC[C@]5(C(=O)NCCCCCCN)CC[C@@]4(C)[C@]3(C)CC[C@H]2C1(C)C
IC50 [11]: 7.2 µM
IC50 [12]: 14.9 µM
IC50 [13]: 12.8 µM
IC50 [14]: 3.8 µM

C[C@@H]1CC[C@]2(C(=O)OCC(=O)N/N=C/c3ccc([N+](=O)[O-])cc3)CC[C@]3(C)C(=CC(=O)[C@@H]4[C@@]5(C)CC[C@H](O)[C@](C)(CO)[C@@H]5CC[C@]43C)[C@@H]2[C@]1(C)O
IC50 [15]: 8.74 µM
IC50 [16]: 18.8 µM
IC50 [17]: 15.4 µM

C[C@@H]1O[C@@H](O[C@H]2CC[C@@]3(C)[C@@H](CC[C@]4(C)[C@@H]3CC=C3[C@H]5CC(C)(C)CC[C@]5(C(=O)O)CC[C@]34C)[C@]2(C)CO)[C@H](O)[C@H](O)[C@H]1O[C@@H]1OC[C@H](O)[C@H](O)[C@H]1O
IC50 [5]: 17.3 µM
IC50 [6]: 42.1 µM

COC(=O)C1CCCN1C(=O)[C@]12CC[C@@H](C)[C@H](C)[C@H]1C1=CC[C@@H]3[C@@]4(C)C[C@@H](O)[C@H](O)[C@@](C)(CO)[C@@H]4CC[C@@]3(C)[C@]1(C)CC2 (stereo not given in full)
IC50 [21]: 21.3 µM

C[C@@H]1CC[C@]2(C(=O)NC(Cc3c[nH]c4ccccc34)C(=O)O)CC[C@]3(C)C(=CC(=O)[C@@H]4[C@@]5(C)CC[C@H](O)[C@](C)(CO)[C@@H]5CC[C@]43C)[C@@H]2[C@]1(C)O (stereo not given in full)
IC50 [11]: 6.11 µM
IC50 [19]: 8.03 µM
IC50 [20]: 11.3 µM

CC(=O)O[C@H]1CC[C@]2(C)[C@H]3CC=C4[C@@H]5[C@@H](C)[C@H](C)CC[C@]5(C(=O)NCCCCC(C)N)CC[C@@]4(C)[C@]3(C)CC[C@H]2C1(C)C (stereo not given in full)
IC50 [11]: 5 µM
IC50 [18]: 4.8 µM

C[C@@H]1O[C@@H](O[C@@H]2[C@@H](O)[C@H](O[C@H]3CC[C@@]4(C)[C@@H](CC[C@]5(C)[C@@H]4CC=C4[C@H]6CC(C)(C)CC[C@]6(C(=O)O)CC[C@]45C)[C@]3(C)CO)OC[C@@H]2O[C@H]2O[C@H](CO)[C@@H](O)[C@H](O)[C@@H]2O)[C@H](O)[C@@H](O)[C@H]1O
IC50 [5]: 19.6 µM
IC50 [6]: > 50 µM

C[C@H]1[C@H](C)CC[C@@]23CC[C@@]4(C)[C@]5(C)CC[C@H]6C(C)(C)C(=O)C(C#N)=C[C@]6(C)C5=CC(=O)[C@]4(OC2=O)[C@H]13
IC50 [1]: 8 µM

C[C@@H]1O[C@@H](O[C@H]2CC[C@@]3(C)[C@@H](CC[C@]4(C)[C@@H]3CC=C3[C@H]5CC(C)(C)CC[C@]5(C(=O)O)CC[C@]34C)[C@]2(C)CO)[C@H](O)[C@H](O)[C@H]1O[C@@H]1O[C@H](CO)[C@@H](O)[C@H](O)[C@H]1O
IC50 [5]: 17.8 µM
IC50 [6]: 41.3 µM

CCOP(=O)(OCC)C(NC(=O)[C@]12CC[C@@H](C)[C@H](C)[C@H]1C1=CC[C@@H]3[C@@]4(C)C[C@@H](OC(C)=O)[C@H](OC(C)=O)[C@@](C)(COC(C)=O)[C@@H]4CC[C@@]3(C)[C@]1(C)CC2)c1cccc2ccccc12 (stereo not given in full)
IC50 [7]: 43.8 µM
IC50 [8]: 46.1 µM
IC50 [9]: 54.8 µM
IC50 [10]: > 100 µM

C[C@H]1[C@H](C)CC[C@]2(C(=O)n3ccnc3)CC[C@]3(C)C(=CC[C@@H]4[C@@]5(C)C=C(C#N)C(=O)C(C)(C)[C@@H]5CC[C@]43C)[C@H]12
IC50 [1]: 5 µM

COc1ccc(/C=N/NC(=O)COC(=O)[C@]23CC[C@@H](C)[C@@](C)(O)[C@H]2C2=CC(=O)[C@@H]4[C@@]5(C)CC[C@H](O)[C@](C)(CO)[C@@H]5CC[C@@]4(C)[C@]2(C)CC3)cc1
IC50 [15]: 4.16 µM
IC50 [16]: 8.54 µM
IC50 [17]: 11.3 µM

COC(=O)[C@]12CCC(C)(C)C[C@H]1[C@H]1C(=O)C=C3[C@@]4(C)C=C(C#N)C(=O)C(C)(C)[C@@H]4CC[C@@]3(C)[C@]1(C)CC2 [BARDOXOLONE METHYL]
IC50 [1]: 4 µM

O=c1[nH]cc(F)c(=O)[nH]1 [FLUOROURACIL]
IC50 [7]: 40.1 µM
IC50 [8]: 44.3 µM
IC50 [9]: 34.5 µM
IC50 [10]: 56 µM
